{
  "source": "patent EP2711366A1",
  "about": "“Cationic triphenylamine derivatives activable by visible and Infra Red light for inducing and imaging apoptosis in cancer cells” (Institut Curie, priority 2012, dated 2014)",
  "key": {"HeLa cells [1]": {"test_system": "HeLa cells", "test": "Cytophototoxicity by MTT assay under illumination", "type": "cell-based", "conditions": "irradiance 60mW/cm^2", "quoted_text": "(§1) Different experiments were conducted and described below: • MCF7 cells were treated with 2µM of TP2Py or TP3Bzim and exposed to illumination (Fig.9A); • HeLa cells were treated with 2µM of TP2Py or TP3Bzim and exposed to illumination (Fig.9B); • MCF7 cells were treated with TP2Py, 40 min illumination (black circles) or without illumination (white circles) (Fig.9C) • HeLa cells were treated with TP2Py [30 min illumination (black circles) or without illumination (white circles)] or TP3Bzim [15 min illumination (black triangles) or without illumination (white triangles)]\n(§2) For each experiment, the source of excitation was a Mercury lamp (130W; 380-600nm) with an excitation filter centered at 452nm (± 45 nm), irradiance, 60mW/cm^2.\n(§3) First, the experiment was calibrated by determining the time of illumination exposure which leads to the toxicity 50%, for a given concentration of TPA (2 µM) and for an irradiance of 60mW/cm^2. […] This characteristic time was then used for the plots shown in Fig. 9C and 9D which represent the cell viability as a function of TPA concentration (in HeLa and MCF-7 cells, respectively)."}, "living MCF-7 cells [2]": {"test_system": "living MCF-7 cells", "test": "One-photon confocal fluorescence microscopy, photo-induced nuclear translocation and membrane blebbing", "type": "cell-based", "protocol": "One-photon epifluorescence and confocal images were obtained using a SP2 confocal microscope (Leica MicroSystem) equipped with an incubation chamber (37°C, CO2 5%). Excitation and emission filters for epifluorescence were 450-490 nm and 515-700 nm, respectively. A continuous laser line (458 nm) was used for excitation in the confocal mode.\nThe photo-induced nuclear translocation and membrane blebbing were next assessed using confocal fluorescence microscopy [λexc = 458 nm; emission slit settings: 560-720nm and 530-690nm for TP2Py and TP3Bzim, respectively] under experimental conditions similar to those described in experiment 1 for epifluorescence experiments. The corresponding transmission images illustrating the concomitant membrane blebbing are shown below the confocal fluorescence images. Living MCF7 cells were incubated with 2µM TP3Bzim or TP2Py for 2 hours before observation. As shown in Fig. 5A (TP2Py) and in Fig. 5B (TP3BZim), the results obtained with confocal imaging were similar to those obtained with epifluorescence imaging (experiment 1), with however, some discrepancies in the time courses of event appearance, most likely due to the power of the excitation source which is different between epifluorescence and confocal experiments (see below). […] Based on both criteria (re-localization of the fluorescence signal and the formation of blebs), the deduced fluences were 22 and 40 J/cm^2 for TP2Py and TP3Bzim, respectively. […]\nThe TP2Py compound at a concentration of 2 µM was first incubated with living MCF-7 cells for 2 hours and then observed with confocal microscope with varying illumination power of the laser source [λ=458 nm; emission slit setting: 560-720 nm]. […] For each condition, the fluorescence intensity in ROIs corresponding to the nucleus was plotted as a function of time (the initial time value, t = 0, represents the first observation) (FIG.7C). Using integration time based on tmax values, light dose values, determined from experiments performed at irradiance of 5.6 or 30 mW/cm^2, were consistent (27.6 and 27 J/cm^2 respectively). These values are in accordance with the above-mentioned value for TP2Py (fluence, 22 J/cm^2 in Fig. 5).\nLiving MCF-7 cells were treated with varying concentrations of TP2Py for two hours (2µM; 0.2µM and 0.02µM) and observed with a confocal microscope [λexc = 458nm; irradiance 30mW/cm^2, emission slit setting: 560-720nm.] (FIG 8A: 2µM; FIG 8B: 0.2µM; FIGBC: 0.02µM)."}, "MCF-7 cells": {"test_system": "MCF-7 cells", "test": "FITC-conjugated Annexin V staining, flow cytometric analysis (apoptosis)", "type": "cell-based", "conditions": "for HMFI population: 30 min illumination; for HMFI population (Annexin V positive, TP2Py positive): 2µM, 2 hours", "protocol": "MCF-7 cells were plated in 12-well plates (2.10^5 cells/well) and incubated with 2µM of TP2Py for 2h at 37°C. Under specific conditions (see Fig. 12), cells were further incubated with NAC (1mM) for 30 min, Bapta-AM (20µM) for 3h, or CsA (10µM) for 1h at 37°C. After a time illumination of either 30 or 60 min at […] (Mercury lamp (130W; 380-600nm) + excitation filter centered at 452nm (± 45nm)), cells were gently scraped and pooled with medium floating cells. Cells were individualized in PBS-EDTA (10mM) and stained as described by the manufacturer (Roche, Germany). Briefly, the cell pellet was re-suspended in 500µl Annexin V-HEPES solution (10 mM HEPES-NaOH, pH 7.4, 140mM NaCl, 5mM CaCl2) and incubated on ice for 30 min in the dark. Cells were then washed in ice-cold HEPES buffer before analysis. Fluorescence signals of fluorescently labelled (FITC) Annexin V and TP2Py were measured by a FACSCalibur flow cytometer (Becton-Dickinson, Sunnyvale, CA, USA) using FL1 and FL2 detectors, respectively.\nDifferent experiments are summarized below: • MCF-7 cells treated with 2µM TP2Py for 2 hours and then stained with FITC-conjugated Annexin V immediately (Fig.12A) without light exposure; • MCF-7 cells treated with 2µM TP2Py for 2 hours and then stained with FITC-conjugated Annexin V after a time illumination (Exc, 452 nm) of 30 min (Fig.12B); • MCF-7 cells treated with 2µM TP2Py for 2 hours and then stained with FITC-conjugated Annexin V after a time illumination (Exc, 452 nm) of 60 min (Fig.12C); • control MCF-7 cells treated with DMSO (1%) only and illuminated for 30 min before Annexin V staining (Fig.12D); • control MCF-7 cells treated with 1µg/mL actinomycin D (ActD), no illumination before Annexin V staining (Fig.12E); • control MCF-7 cells treated with camptothecin (CPT, 10µM)) (Fig.12F) for 2.5 hours, no illumination before Annexin V staining; • MCF-7 cells treated during 2 hours with 2µM TP2Py and 10µM cyclosporine A (CsA) and illuminated for 30 min before Annexin V staining (Fig.12G); • MCF-7 cells treated during 2 hours with 2µM TP2Py and 1 mM N-Acetyl cysteine (NAC) and illuminated for 30 min before Annexin V staining (Fig.12H); and • MCF-7 cells treated during 2 hours with 2µM TP2Py and 20µM Bapta-am (Fig.12I) and illuminated for 30 min before Annexin V staining.\nThe horizontal (FL1-H) and vertical (FL2-H) axes correspond to the fluorescence signal of Annexin V and TP2Py, respectively. The percentage of population with a high mean fluorescence signal is indicated in the corresponding quadrant (top right or bottom right in the presence or absence of TP2Py, respectively)."}, "living MCF-7 cells [3]": {"test_system": "living MCF-7 cells", "test": "Cell death induced by two-photon excitation (multiphoton microscopy)", "type": "cell-based", "conditions": "two-photon λex 860nm, irradiance 1.25W/cm^2", "protocol": "A similar set up was used for two-photon images except that the excitation source was a 80-MHz mode-locked Mai Tai® Ti:Sapphire tunable laser (720-920 nm, 100 fs laser pulse; Spectra Physics, Mountain View, California) tuned to 860 nm.\nLiving MCF-7 cells were treated with 2 µM of TP2Py for 2 hours, exposed to two-photon excitation and simultaneously observed by multiphoton microscopy [using- a pulsed IR laser source for excitation Mai Tai, Spectra Physics, λex = 860nm; irradiance, 1.25W/cm^2, emission slit setting: 560-720nm]."}, "HeLa cells [4]": {"test_system": "HeLa cells", "quoted_text": "as §1, §2, §3"}, "[5]": {"conditions": "2µM, 2 hours, λexc 458 nm, irradiance 30 mW/cm^2"}},
  "data": [
    {"smiles": "C[n+]1ccc(/C=C/c2ccc(N(c3ccccc3)c3ccc(/C=C/c4cc[n+](C)cc4)cc3)cc2)cc1", "note": "[TP2Py]", "values": [
      {"measurement": "illumination time required for the same TC50 under illumination", "setting": "HeLa cells [1]; Mercury lamp, filter 452nm", "result": 30, "unit": "min"},
      {"measurement": "corresponding light dose", "setting": "HeLa cells [1]", "result": 108, "unit": "J/cm^2"},
      {"measurement": "time at which the first blebs appeared", "setting": "living MCF-7 cells [2]; 20nM, constant light excitation, transmission mode", "result": 75, "unit": "min"},
      {"measurement": "light dose", "setting": "living MCF-7 cells [2]; 0.2µM, irradiance 30 mW/cm^2", "result": 306, "unit": "J/cm^2"},
      {"measurement": "tmax of nuclear re-localization", "setting": "living MCF-7 cells [2]; 0.2µM, irradiance 30 mW/cm^2", "result": "> 2", "unit": "h"},
      {"measurement": "deduced fluence (re-localization of the fluorescence signal and formation of blebs)", "setting": "living MCF-7 cells [2]; 2µM, 2 hours, confocal, λexc 458 nm (Fig. 5)", "result": 22, "unit": "J/cm^2"},
      {"measurement": "lag period before increase of fluorescence emission intensity in the nucleus", "setting": "living MCF-7 cells [2]; [5]", "result": "2 to 4", "unit": "min"},
      {"measurement": "time of maximum fluorescence emission intensity in the nucleus", "setting": "living MCF-7 cells [2]; [5]", "result": "8 to 10", "unit": "min"},
      {"measurement": "light dose (integration time based on tmax)", "setting": "living MCF-7 cells [2]; 2 µM, irradiance 5.6 mW/cm^2", "result": 27.6, "unit": "J/cm^2"},
      {"measurement": "tstart of nuclear re-localization", "setting": "living MCF-7 cells [2]; 2 µM, irradiance 5.6 mW/cm^2", "result": 50, "unit": "min"},
      {"measurement": "light dose (integration time based on tmax)", "setting": "living MCF-7 cells [2]; 2 µM, irradiance 30 mW/cm^2", "result": 27, "unit": "J/cm^2"},
      {"measurement": "tmax of nuclear re-localization", "setting": "living MCF-7 cells [2]; 2 µM, irradiance 30 mW/cm^2", "result": 0.25, "unit": "h"},
      {"measurement": "tstart of nuclear re-localization", "setting": "living MCF-7 cells [2]; 2 µM, irradiance 30 mW/cm^2", "result": 4, "unit": "min"},
      {"measurement": "HMFI population", "setting": "MCF-7 cells; 2µM TP2Py with 10µM cyclosporine A (CsA)", "result": 13, "unit": "%"},
      {"measurement": "HMFI population", "setting": "MCF-7 cells; 2µM TP2Py with 20µM Bapta-am", "result": 19, "unit": "%"},
      {"measurement": "HMFI population", "setting": "MCF-7 cells; 2µM TP2Py with 1 mM N-Acetyl cysteine (NAC)", "result": 25, "unit": "%"},
      {"measurement": "HMFI population (Annexin V positive, TP2Py positive)", "setting": "MCF-7 cells; 30 min illumination (452 nm, 40 MW.cm^-2)", "result": 29, "unit": "%"},
      {"measurement": "HMFI population (Annexin V positive, TP2Py positive)", "setting": "MCF-7 cells; 60 min illumination", "result": 38, "unit": "%"},
      {"measurement": "HMFI population (Annexin V positive, TP2Py positive)", "setting": "MCF-7 cells; without light illumination", "result": 4.3, "unit": "%"},
      {"measurement": "start of re-localization into the nucleus after the first excitation", "setting": "living MCF-7 cells [3]; 2 µM, 2 hours", "result": "5 to 15", "unit": "min"},
      {"measurement": "light dose", "setting": "living MCF-7 cells [3]", "result": "≈ 300 J/cm^2"},
      {"measurement": "dark toxicity (concentration below which negligible)", "setting": "HeLa cells [4]", "result": "≥ 50", "unit": "µM"}
    ]}
  ]
}
